The data set concerns the target P-glycoprotein (P-gp, ABCB1, MDR1) (Homo sapiens, UniProt P08183). Briefly: inhibition of […]-IAAP photoaffinity labeling of P-gp in crude membranes. It is filed as binding.

P-glycoprotein (P-gp, ABCB1, MDR1), sequence (P08183 whole entry): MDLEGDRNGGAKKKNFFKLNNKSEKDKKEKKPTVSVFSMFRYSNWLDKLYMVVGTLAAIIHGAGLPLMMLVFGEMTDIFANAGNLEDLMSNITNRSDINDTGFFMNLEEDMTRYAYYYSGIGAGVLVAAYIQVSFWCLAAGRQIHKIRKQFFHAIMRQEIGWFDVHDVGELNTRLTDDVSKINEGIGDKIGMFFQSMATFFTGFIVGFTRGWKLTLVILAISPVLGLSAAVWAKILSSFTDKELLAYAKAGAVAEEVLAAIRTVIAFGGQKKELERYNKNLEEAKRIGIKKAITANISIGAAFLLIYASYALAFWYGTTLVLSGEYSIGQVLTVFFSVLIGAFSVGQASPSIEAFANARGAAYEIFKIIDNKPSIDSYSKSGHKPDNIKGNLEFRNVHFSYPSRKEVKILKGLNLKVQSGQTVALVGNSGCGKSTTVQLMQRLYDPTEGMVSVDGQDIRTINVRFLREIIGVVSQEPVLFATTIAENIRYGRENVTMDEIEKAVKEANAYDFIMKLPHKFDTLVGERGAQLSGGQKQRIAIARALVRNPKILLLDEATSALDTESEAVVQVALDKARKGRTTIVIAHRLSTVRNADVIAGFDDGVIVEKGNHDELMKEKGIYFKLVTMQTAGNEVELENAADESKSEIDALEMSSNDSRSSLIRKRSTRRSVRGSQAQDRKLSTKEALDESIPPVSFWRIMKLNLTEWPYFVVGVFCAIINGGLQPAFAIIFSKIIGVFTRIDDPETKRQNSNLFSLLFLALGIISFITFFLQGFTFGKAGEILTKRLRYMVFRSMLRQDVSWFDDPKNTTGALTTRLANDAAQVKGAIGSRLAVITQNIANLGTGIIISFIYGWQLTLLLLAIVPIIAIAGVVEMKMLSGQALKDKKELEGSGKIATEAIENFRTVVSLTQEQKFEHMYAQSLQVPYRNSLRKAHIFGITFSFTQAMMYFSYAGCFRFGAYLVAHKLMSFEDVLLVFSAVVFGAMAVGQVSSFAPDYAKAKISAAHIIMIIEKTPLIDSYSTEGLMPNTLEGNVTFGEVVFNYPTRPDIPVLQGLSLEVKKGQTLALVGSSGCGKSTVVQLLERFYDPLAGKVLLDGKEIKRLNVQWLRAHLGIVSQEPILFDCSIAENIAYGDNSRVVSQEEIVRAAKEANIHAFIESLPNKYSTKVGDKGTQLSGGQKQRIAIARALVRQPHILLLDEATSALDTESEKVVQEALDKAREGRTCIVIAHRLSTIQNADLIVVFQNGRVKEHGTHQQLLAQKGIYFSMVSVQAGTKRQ

The term IC50 denotes the point on the concentration scale where inhibition reaches its midpoint. Higher therefore signals weaker potency in that assay. With `C=C(C)/C=C/C[C@@H](C)[C@H]1CC[C@@]2(C)[C@@H]3[C@@H](O)C=C4[C@@H](CC[C@H](O)C4(C)C)[C@]3(C=O)CC[C@]12C` [kuguacin J], the IC50 amounted to 8.3 ± 5.4 µM.
